Assay results: ChEMBL document CHEMBL4483862, “Open-source discovery of chemical leads for next-generation chemoprotective antimalarials” (2018)
pIC50: −log10 of the molar value.

System: Plasmodium berghei
Experiment: Luciferase/luciferin-expressing antifolate-resistant parasites were used to infect a culture of HepG2 cells that were pre-incubated with compounds. Infected hepatocytes emit light due to the luciferase reaction. Assay results are presented as the percent inhibition of light emission compared to control. […]
Type: functional
Conditions: sporozoite; for IC90: read-out: LUCIFERASE INFECTION ASSAY - IC90

SMILES | IC90 [µM] | also measured
CCc1cc(C(=O)Nc2ncccc2O)sc1C | > 10 | pIC50 (FFLUC_HILL_SLOPE 0.955, FFLUC_R_SQUARED 0.833, PBLUC_HILL_SLOPE 2.67, PBLUC_R_SQUARED 0.448, read-out: LUCIFERASE INFECTION ASSAY - IC50): 5.31
Cc1ccc(NC(=O)Cc2csc(NC(=O)C3CC3)n2)cc1Cl | > 10 | pIC50 (FFLUC_HILL_SLOPE 0.917, FFLUC_R_SQUARED 0.0768, HEPG2TOX_HILL_SLOPE 0.677, HEPG2TOX_R_SQUARED 0.444, PBLUC_HILL_SLOPE 1.82, PBLUC_R_SQUARED 0.301, read-out: LUCIFERASE INFECTION ASSAY - IC50): < 5.00
CN(/N=C/c1cc(Cl)cc(Cl)c1O)c1ccc([N+](=O)[O-])cn1 | > 9.67 | pIC50 (FFLUC_HILL_SLOPE 1.05, FFLUC_R_SQUARED 0.5, read-out: LUCIFERASE INFECTION ASSAY - IC50): < 5.01
CC1CCc2c(sc3c2C(=O)NC(/C(Br)=C/c2ccccc2)N3)C1 (stereo not given) | 3.94 | pIC50 (FFLUC_HILL_SLOPE 0.906, FFLUC_R_SQUARED 0.617, HEPG2TOX_HILL_SLOPE 7.13, HEPG2TOX_R_SQUARED 0.573, PBLUC_HILL_SLOPE 13.5, PBLUC_R_SQUARED 0.659, read-out: LUCIFERASE INFECTION ASSAY - IC50): 5.47
CC(C)(c1ccc(Oc2ccc(NC(=O)C3CC3(C)C)cc2)cc1)c1ccc(Oc2ccc(NC(=O)C3CC3(C)C)cc2)cc1 (stereo not given) | > 5.47 | pIC50 (FFLUC_HILL_SLOPE 0.986, FFLUC_R_SQUARED 0.483, PBLUC_HILL_SLOPE 0.525, PBLUC_R_SQUARED 0.295, read-out: LUCIFERASE INFECTION ASSAY - IC50): 5.63
Cc1cc(NC(C)C)n2ncc(-c3ccc(F)cc3)c2n1 | 5.57 | pIC50 (FFLUC_HILL_SLOPE 0.941, FFLUC_R_SQUARED 0.965, HEPG2TOX_HILL_SLOPE 0.182, HEPG2TOX_R_SQUARED 0.624, PBLUC_HILL_SLOPE 0.618, PBLUC_R_SQUARED 0.897, read-out: LUCIFERASE INFECTION ASSAY - IC50): 6.80
Oc1cccc(-c2cnc3cnc(-c4ccc(CNc5ccccc5)cc4)cn23)c1 | 2.92 | pIC50 (FFLUC_HILL_SLOPE 1.01, FFLUC_R_SQUARED 0.213, PBLUC_HILL_SLOPE 39.2, PBLUC_R_SQUARED 0.71, read-out: LUCIFERASE INFECTION ASSAY - IC50): 5.56
CCCn1c(C)cc(C(=O)COC(=O)C2=COCCO2)c1C | > 10 | pIC50 (FFLUC_HILL_SLOPE 0.919, FFLUC_R_SQUARED 0.757, PBLUC_HILL_SLOPE 0.614, PBLUC_R_SQUARED 0.12, read-out: LUCIFERASE INFECTION ASSAY - IC50): 6.08
Cc1ccc2nc(-c3ccc(N(C)C)cc3)[nH]c2c1 | 5.96 | pIC50 (FFLUC_HILL_SLOPE 0.944, FFLUC_R_SQUARED 0.925, PBLUC_HILL_SLOPE 0.907, PBLUC_R_SQUARED 0.785, read-out: LUCIFERASE INFECTION ASSAY - IC50): 6.28
Cc1nc2ccccc2nc1SCC(=O)c1ccc(NS(C)(=O)=O)cc1 | > 10 | pIC50 (FFLUC_HILL_SLOPE 1.05, FFLUC_R_SQUARED 0.177, HEPG2TOX_HILL_SLOPE 1.12, HEPG2TOX_R_SQUARED 0.682, read-out: LUCIFERASE INFECTION ASSAY - IC50): < 5.00
Cc1cc(C)cc(Nc2nc(=O)c(Cc3ccc(Cl)cc3)n[nH]2)c1 | 8.45 | pIC50 (FFLUC_HILL_SLOPE 1.04, FFLUC_R_SQUARED 0.238, PBLUC_HILL_SLOPE 2.61, PBLUC_R_SQUARED 0.421, read-out: LUCIFERASE INFECTION ASSAY - IC50): 5.44
CCCCCN1C(=O)/C(=N\n2c(-c3ccc(Cl)c(Cl)c3)cs/c2=N\c2cccc(C)c2C)c2ccccc21 | > 10 | pIC50 (FFLUC_HILL_SLOPE 0.963, FFLUC_R_SQUARED 0.82, HEPG2TOX_HILL_SLOPE 0.0725, HEPG2TOX_R_SQUARED 0.0443, PBLUC_HILL_SLOPE 3.87, PBLUC_R_SQUARED 0.467, read-out: LUCIFERASE INFECTION ASSAY - IC50): 5.22
Cn1c(NCC2CC2)nc2cnc(-c3ccc4ccccc4c3)cc21 | 2.07 | pIC50 (FFLUC_HILL_SLOPE 1.05, FFLUC_R_SQUARED 0.583, HEPG2TOX_HILL_SLOPE 31.1, HEPG2TOX_R_SQUARED 0.421, PBLUC_HILL_SLOPE 0.605, PBLUC_R_SQUARED 0.735, read-out: LUCIFERASE INFECTION ASSAY - IC50): 7.26
Cc1sc2ncn(/N=C/c3ccc(N(c4ccccc4)c4ccccc4)cc3)c(=O)c2c1C | 4.02 | pIC50 (FFLUC_HILL_SLOPE 0.996, FFLUC_R_SQUARED 0.715, HEPG2TOX_HILL_SLOPE 1.1, HEPG2TOX_R_SQUARED 0.992, PBLUC_HILL_SLOPE 2.81, PBLUC_R_SQUARED 0.433, read-out: LUCIFERASE INFECTION ASSAY - IC50): 5.74
CCN(CC)S(=O)(=O)c1cccc(NC(=O)c2sc(Nc3ccc(C)cc3C)c(C(=O)NC(C)COC)c2N)c1 (stereo not given) | > 10 | pIC50 (FFLUC_HILL_SLOPE 0.973, FFLUC_R_SQUARED 0.376, read-out: LUCIFERASE INFECTION ASSAY - IC50): < 5.00
OC1CCN(c2nn3cc(-c4ccccc4)nc3s2)CC1 | 0.954 | pIC50 (FFLUC_HILL_SLOPE 1.04, FFLUC_R_SQUARED 0.865, PBLUC_HILL_SLOPE 0.617, PBLUC_R_SQUARED 0.864, read-out: LUCIFERASE INFECTION ASSAY - IC50): 7.57
Cc1ccccc1-n1c(SCc2nc3ccccc3c(=O)n2CC#N)nnc1-c1ccc(C(C)(C)C)cc1 | > 10 | pIC50 (FFLUC_HILL_SLOPE 0.956, FFLUC_R_SQUARED 0.529, read-out: LUCIFERASE INFECTION ASSAY - IC50): < 5.00
O=C(Nc1ccc(N2CCCC2)cn1)C1CC=CCC1 (stereo not given) | 0.636 | pIC50 (FFLUC_HILL_SLOPE 1.03, FFLUC_R_SQUARED 0.671, HEPG2TOX_HILL_SLOPE 1.03, HEPG2TOX_R_SQUARED 0.932, PBLUC_HILL_SLOPE 1.27, PBLUC_R_SQUARED 0.726, read-out: LUCIFERASE INFECTION ASSAY - IC50): 6.95
O=C(Nc1nc2ccc(OC(F)(F)F)cc2s1)c1cnccn1 | 3.41 | pIC50 (FFLUC_HILL_SLOPE 1.04, FFLUC_R_SQUARED 0.266, PBLUC_HILL_SLOPE 101, PBLUC_R_SQUARED 0.2, read-out: LUCIFERASE INFECTION ASSAY - IC50): 5.48
O=C1C(=O)N(Cc2ccccc2F)c2c1cccc2C(F)(F)F | > 10.2 | pIC50 (FFLUC_HILL_SLOPE 1.03, FFLUC_R_SQUARED 0.0461, HEPG2TOX_HILL_SLOPE 15.2, HEPG2TOX_R_SQUARED 0.946, PBLUC_HILL_SLOPE 1.65, PBLUC_R_SQUARED 0.631, read-out: LUCIFERASE INFECTION ASSAY - IC50): 5.53
Cc1c(S(=O)(=O)c2ccc(Cl)cc2)csc1C(=O)Nc1ccccc1Cl | > 7.74 | pIC50 (FFLUC_HILL_SLOPE 0.988, FFLUC_R_SQUARED 0.0286, PBLUC_HILL_SLOPE 1.65, PBLUC_R_SQUARED 0.324, read-out: LUCIFERASE INFECTION ASSAY - IC50): 5.16
O=C(Nc1ccccc1)c1ccc(CN2CCC(O)CC2)cc1 | > 10 | pIC50 (FFLUC_HILL_SLOPE 0.964, FFLUC_R_SQUARED 0.857, PBLUC_HILL_SLOPE 0.791, PBLUC_R_SQUARED 0.696, read-out: LUCIFERASE INFECTION ASSAY - IC50): 5.98
Cc1ccc(-n2nc(-c3ccc(OC(F)(F)F)cc3)cc2NC(=O)Nc2ccc(OC(F)(F)F)cc2)cc1C | > 6 | pIC50 (FFLUC_HILL_SLOPE 0.93, FFLUC_R_SQUARED 0.122, PBLUC_HILL_SLOPE 17.9, PBLUC_R_SQUARED 0.245, read-out: LUCIFERASE INFECTION ASSAY - IC50): 5.22
O=C(Nc1ccccc1)c1cc(Nc2ccc(O)cc2)ncn1 | > 10.8 | pIC50 (FFLUC_HILL_SLOPE 0.974, FFLUC_R_SQUARED 0.921, PBLUC_HILL_SLOPE 1.57, PBLUC_R_SQUARED 0.726, read-out: LUCIFERASE INFECTION ASSAY - IC50): 5.28
O=[N+]([O-])c1cnc(Sc2nnc(SCc3cccc(C(F)(F)F)c3)s2)s1 | > 7.56 | pIC50 (FFLUC_HILL_SLOPE 0.915, FFLUC_R_SQUARED 0.422, read-out: LUCIFERASE INFECTION ASSAY - IC50): < 5.12
O=[N+]([O-])c1ccc2c(c1)S(=O)(=O)CC2Sc1cccs1 (stereo not given) | > 10.1 | pIC50 (FFLUC_HILL_SLOPE 0.919, FFLUC_R_SQUARED 0.527, PBLUC_HILL_SLOPE 1.82, PBLUC_R_SQUARED 0.11, read-out: LUCIFERASE INFECTION ASSAY - IC50): < 5.00
CN1CCN(C(c2ccccn2)c2c(-c3ccccc3)n(O)c3ccccc23)CC1 (stereo not given) | > 10 | pIC50 (FFLUC_HILL_SLOPE 1.05, FFLUC_R_SQUARED 0.622, read-out: LUCIFERASE INFECTION ASSAY - IC50): < 5.00
COc1ccnc(Nc2ccc3c(c2)nc2n3CCCCC2)n1 | 2.84 | pIC50 (FFLUC_HILL_SLOPE 0.925, FFLUC_R_SQUARED 0.902, HEPG2TOX_HILL_SLOPE 18.6, HEPG2TOX_R_SQUARED 0.895, PBLUC_HILL_SLOPE 0.753, PBLUC_R_SQUARED 0.781, read-out: LUCIFERASE INFECTION ASSAY - IC50): 6.81
Cc1ccc(-c2nnc(SCC(=O)c3c(N)n(C)c(=O)n(C)c3=O)nc2-c2ccc(C)cc2)cc1 | > 10 | pIC50 (FFLUC_HILL_SLOPE 1.03, FFLUC_R_SQUARED 0.511, read-out: LUCIFERASE INFECTION ASSAY - IC50): < 5.00
Cc1cccc2nc(C(=O)Nc3ccc4c(c3)nc3n4CCCCC3)cn12 | > 10 | pIC50 (FFLUC_HILL_SLOPE 1.04, FFLUC_R_SQUARED 0.903, PBLUC_HILL_SLOPE 0.368, PBLUC_R_SQUARED 0.555, read-out: LUCIFERASE INFECTION ASSAY - IC50): 6.80
